This passage reports Ki results from patent US11098058B2, “Bicyclic ketone compounds and methods of use thereof” (Genentech, Inc., priority 2017, dated 2021).

Where only a bound is given, the exact number is not on record here.

For the first assay, the target named is T1, human RIP1 kinase domain (2-375) (Homo sapiens (Human), UniProt Q13546).
T1 sequence (Q13546 2-375): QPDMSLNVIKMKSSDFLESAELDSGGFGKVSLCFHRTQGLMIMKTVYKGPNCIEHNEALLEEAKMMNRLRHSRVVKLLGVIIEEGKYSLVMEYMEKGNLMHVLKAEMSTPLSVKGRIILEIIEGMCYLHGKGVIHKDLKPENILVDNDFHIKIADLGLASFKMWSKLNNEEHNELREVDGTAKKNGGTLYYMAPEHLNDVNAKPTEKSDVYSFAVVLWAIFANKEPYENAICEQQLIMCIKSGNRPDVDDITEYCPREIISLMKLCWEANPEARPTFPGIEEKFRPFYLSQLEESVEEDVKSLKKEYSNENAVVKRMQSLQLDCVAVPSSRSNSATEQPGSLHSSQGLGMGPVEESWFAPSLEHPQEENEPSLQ
Assay: not given
The note with it: RIP1 kinase inhibition, tight-binding apparent Ki; 50 nM enzyme, 50 μM ATP, 2 hours incubation.
For `O=C(c1cc2n(n1)[C@H](c1ccccc1)C[C@@H]2F)C1CC1` (single isomer, unassigned) [Example 108], the Ki was 3.7 nM. The same measure, in the same setting: to `N#Cc1ccccc1[C@@H]1C[C@H](F)c2nc(C(=O)C3CC3)nn21` (single isomer, unassigned) [Example 124] belongs 61 nM; to `Cc1oncc1C1CC(F)c2nc(C(=O)C3CC3)nn21` (centres unmarked) [Example 153, cyclopropyl(7-fluoro-5-(5-methylisoxazol-4-yl)-6,7-dihydro-5H-pyrrolo[1,2-b][1,2,4]triazol-2-yl)methanone], 380 nM.

As for `COc1cccc([C@@H]2C[C@H](F)c3nc(C(=O)C4CC4)nn32)c1` (single isomer, unassigned) [Example 156], the Ki is 20 nM. On the same count and under the same terms, to `O=C(c1nc2n(n1)[C@@H](c1ccccc1)C[C@H]2F)C1CC(F)(F)C1` (single isomer, unassigned) [Example 64] belongs 780 nM.

On to `N#CC1(C(=O)c2nc3n(n2)[C@H](c2ccccc2)C[C@@H]3F)CC1` (single isomer, unassigned) [Example 95], for which the Ki turned out to be 2.7 nM. On the same count and under the same terms, to `O=C(c1nc2n(n1)[C@H](c1ccccc1Cl)C[C@@H]2F)C1CC1` [Example 100, cyclopropyl-[(5S,7S)-5-(2-chlorophenyl)-7-fluoro-6,7-dihydro-5H-pyrrolo[1,2-b][1,2,4]triazol-2-yl]methanone] belongs 3.5 nM; to `O=C(c1nc2n(n1)[C@H](c1ccccc1)C[C@@H]2F)C1CC(F)(F)C1` (single isomer, unassigned) [Example 73], 3.4 nM; to `O=C(c1nc2n(n1)C(c1ccccc1)CC2)C1(Cn2cccn2)CC1` (centres unmarked) [Example 158, (5-phenyl-6,7-dihydro-5H-pyrrolo[1,2-b][1,2,4]triazol-2-yl)-[1-(pyrazol-1-ylmethyl)cyclopropyl]methanone], 650 nM. Still for that read-out and setting: the figure for `C[C@@H]1C[C@H]1C(=O)c1nc2n(n1)[C@H](c1ccccc1)C[C@@H]2F` (single isomer, unassigned) [Example 91] is 3.4 nM.

As for `CO[C@H]1C[C@@H](c2ccccc2)n2nc(C(=O)C3CC3)nc21` (single isomer, unassigned) [Example 84], the Ki is 150 nM.

In the case of `CC[C@@H]1C[C@H](F)c2nc(C(=O)C3CC3)nn21` (single isomer, unassigned) [Example 92], the Ki turned out to be 870 nM. The same measure, in the same setting: the figure for `O=C(c1nc2n(n1)[C@H](c1ccccc1)C[C@H]2Cl)C1CC1` (single isomer, unassigned) [Example 117] is 560 nM; for `C[C@H]1C[C@@H]1C(=O)c1nc2n(n1)[C@H](c1ccccc1)C[C@@H]2F` (single isomer, unassigned) [Example 89] it is 15 nM; for `O=C(c1nc2n(n1)[C@H](c1ccccc1)CCC2)C1CC1` (single isomer, unassigned) [Example 146] it is 70 nM. Still for that read-out and setting: to `O=C(c1nc2n(n1)[C@H](c1ccccc1)C[C@@H]2F)C1(C2CC2)CC1` (single isomer, unassigned) [Example 99] belongs 2.9 nM; to `O=C(c1nc2n(n1)[C@H](c1ncccc1F)C[C@@H]2F)C1CC1` (single isomer, unassigned) [Example 150], 10 nM; to `O=C(c1nc2n(n1)[C@H](c1ccccc1)C[C@@H]2F)C1CC2(C1)CC2(F)F` (stereo partly drawn) [Example 70, (2,2-difluorospiro[2.3]hexan-5-yl)-[(5S,7S)-7-fluoro-5-phenyl-6,7-dihydro-5H-pyrrolo[1,2-b][1,2,4]triazol-2-yl]methanone], 17 nM. Still for that read-out and setting: to `O=C(c1nc2n(n1)[C@H](c1cc(F)ccc1F)C[C@@H]2F)C1CC1` [Example 101, cyclopropyl-[(5S,7S)-5-(2,5-difluorophenyl)-7-fluoro-6,7-dihydro-5H-pyrrolo[1,2-b][1,2,4]triazol-2-yl]methanone] belongs 3.6 nM; to `O=C(c1nc2n(n1)[C@H](c1ccccc1)C[C@@H]2F)C1CC1C(F)(F)F` (stereo partly drawn) [Example 81, [(5S,7S)-7-fluoro-5-phenyl-6,7-dihydro-5H-pyrrolo[1,2-b][1,2,4]triazol-2-yl]-[2-(trifluoromethyl)cyclopropyl]methanone], 28 nM.

Still in this assay, the particulars now being: tight-binding apparent inhibition constant (Ki app, Morrison equation); 50 nM enzyme, 50 μM ATP, 2 hours incubation.
Consider `CC1(C(=O)c2nc3n(n2)[C@@H](c2ccccc2)C[C@H]3F)COC1` (single isomer, unassigned) [Example 55], for which the Ki is greater than 10000 nM. On the same count and under the same terms, to `CC(C)C(=O)c1nc2n(n1)C(c1ccccc1)CC2F` (centres unmarked) [Example 45, 1-(7-fluoro-5-phenyl-6,7-dihydro-5H-pyrrolo[1,2-b][1,2,4]triazol-2-yl)-2-methyl-propan-1-one] belongs 14.3 nM.

Another assay addresses T1, human RIP1 kinase domain (2-375). Put plainly: biochemical. The note with it: RIP1 kinase inhibition, tight-binding apparent Ki, 50 nM enzyme, 50 μM ATP, 2 hours incubation.
Protocol: RIP1 Kinase Inhibition Assays (Biochemical Assay)
The ability of the receptor interacting protein kinase (RIPK1) to catalyze the hydrolysis of adenosine-5′-triphosphate (ATP) is monitored using the Transcreener ADP (adenosine-5′-diphosphate) assay (BellBrook Labs). Purified human RIP1 kinase domain (2-375) (50 nM) derived from a baculovirus-infected insect cell expression system is incubated with test compounds for 2 hours in 50 mM Hepes buffer (pH 7.5) containing 30 mM MgCl2, 1 mM dithiothreitol, 50 μM ATP, 0.002% Brij-35, and 0.5% dimethyl sulfoxide (DMSO). […] The tracer bound to the antibody is displaced by the ADP generated during the RIP1K reaction, which causes a decrease in fluorescence polarization that is measured by laser excitation at 633 nm with a FP microplate reader M1000. Fractional activity was plotted against test article concentration. Using Genedata Screener software (Genedata; Basel, Switzerland), the data were fit to the tight-binding apparent inhibition constant (Ki^app) Morrison equation [Williams, J. W. and Morrison, J. F. (1979) The kinetics of reversible tight-binding inhibition. […] The following equation was used to calculate fractional activity and Ki^app:
[formula] where [E]T and [I]T are the total concentrations of active enzyme and test article, respectively.
In the case of `[2H][C@@]1(Cl)C[C@@H](c2ccccc2)n2nc(C(=O)C3CC3)nc21` (racemic) [Example 120, cyclopropyl-[rac-(5S,7R)-7-chloro-7-deuterio-5-phenyl-5,6-dihydropyrrolo[1,2-b][1,2,4]triazol-2-yl]methanone], the Ki came out at 910 nM. `O=C(c1nc2n(n1)[C@H](c1ccccc1)C[C@@H]2F)[C@@H]1C[C@@H]2CC[C@H]1O2` (racemic) [Example 139, [rac-(5S,7S)-7-fluoro-5-phenyl-6,7-dihydro-5H-pyrrolo[1,2-b][1,2,4]triazol-2-yl]-[rac-(1R,2R,4S)-7-oxabicyclo[2.2.1]heptan-2-yl]methanone]: the Ki is 140 nM. Regarding `O=C(c1nc2n(n1)[C@H](c1ccccc1)C[C@@H]2F)C1CCOC1` (mixture of isomers) [Example 130, [rac-(5S,7S)-7-fluoro-5-phenyl-6,7-dihydro-5H-pyrrolo[1,2-b][1,2,4]triazol-2-yl]-tetrahydrofuran-3-yl-methanone], the Ki came to 8 nM.

`C[C@]1(C(=O)c2nc3n(n2)[C@H](c2ccccc2)C[C@@H]3F)CCOC1` (racemic) [Example 138, [rac-(5S,7S)-7-fluoro-5-phenyl-6,7-dihydro-5H-pyrrolo[1,2-b][1,2,4]triazol-2-yl]-[rac-(3S)-3-methyltetrahydrofuran-3-yl]methanone]: the Ki is less than 5 nM.

For the molecule `N#C[C@@H]1C[C@H]1C(=O)c1nc2n(n1)[C@H](c1ccccc1)C[C@@H]2F` (mixture of isomers) [Example 105, rac-(1R,2R)-2-[(5S,7S)-7-fluoro-5-phenyl-6,7-dihydro-5H-pyrrolo[1,2-b][1,2,4]triazole-2-carbonyl]cyclopropanecarbonitrile], the Ki amounted to 13 nM. Consider `O=C(c1nc2n(n1)[C@H](c1ccccc1)C[C@@H]2F)[C@H]1C[C@@H]1C(F)(F)F` (racemic) [Example 160, [rac-(5S,7S)-7-fluoro-5-phenyl-6,7-dihydro-5H-pyrrolo[1,2-b][1,2,4]triazol-2-yl]-[rac-(1S,2S)-2-(trifluoromethyl)cyclopropyl]methanone], for which the Ki worked out at 3 nM.

The assay is the same for the next values; noted with them: tight-binding apparent inhibition constant (Ki app, Morrison equation), 50 nM enzyme, 50 μM ATP, 2 hours incubation.
Turning to `Cn1cc(C(=O)c2nc3n(n2)[C@H](c2ccccc2)C[C@@H]3F)cn1` (stereo in doubt) [Example 40, (1-methylpyrazol-4-yl)-[rac-(5S,7S)-7-fluoro-5-phenyl-6,7-dihydro-5H-pyrrolo[1,2-b][1,2,4]triazol-2-yl]methanone], the Ki was greater than 10000 nM. With `Cn1cc(C(=O)c2nc3n(n2)[C@@H](c2ccccc2)C[C@H]3F)cn1` (stereo in doubt) [Example 48, (1-methylpyrazol-4-yl)-[rac-(5R,7R)-7-fluoro-5-phenyl-6,7-dihydro-5H-pyrrolo[1,2-b][1,2,4]triazol-2-yl]methanone], the Ki turned out to be 416 nM. On to `CC1(C(=O)c2nc3n(n2)[C@H](c2ccccc2)C[C@@H]3F)CC1` (racemic) [Example 26, (rac-(5S,7S)-7-fluoro-5-phenyl-6,7-dihydro-5H-pyrrolo[1,2-b][1,2,4]triazol-2-yl)-(1-methylcyclopropyl)methanone], for which the Ki turned out to be 38 nM. Take `CCC(=O)c1nc2n(n1)[C@H](c1ccccc1)[C@@H](F)C2` (racemic) [Example 32, 1-[rac-(5R,6S)-6-fluoro-5-phenyl-6,7-dihydro-5H-pyrrolo[1,2-b][1,2,4]triazol-2-yl]propan-1-one]: the Ki came to 737 nM. Still for that read-out and setting: to `O=C(c1nc2n(n1)[C@@H](c1ccccc1)C[C@H]2F)C1CCC1` (racemic) [Example 43, cyclobutyl-[rac-(5R,7R)-7-fluoro-5-phenyl-6,7-dihydro-5H-pyrrolo[1,2-b][1,2,4]triazol-2-yl]methanone] belongs 12 nM; to `CC1(C(=O)c2nc3n(n2)[C@H](c2ccccc2)C[C@@H]3F)COC1` (racemic) [Example 15, (rac-(5S,7S)-7-fluoro-5-phenyl-6,7-dihydro-5H-pyrrolo[1,2-b][1,2,4]triazol-2-yl)-(3-methyloxetan-3-yl)methanone], 30 nM. The same measure, in the same setting: to `O=C(c1nc2n(n1)[C@H](c1ccccc1)C[C@@H]2F)C1C2COCC21` (mixture of isomers) [Example 56, 3-oxabicyclo[3.1.0]hexan-6-yl-[rac-(5S,7S)-7-fluoro-5-phenyl-6,7-dihydro-5H-pyrrolo[1,2-b][1,2,4]triazol-2-yl]methanone] belongs 221 nM. As for `O=C(c1ccccn1)c1nc2n(n1)[C@H](c1ccccc1)C[C@@H]2F` (racemic) [Example 33, (rac-(5S,7S)-7-fluoro-5-phenyl-6,7-dihydro-5H-pyrrolo[1,2-b][1,2,4]triazol-2-yl)-(2-pyridyl)methanone], the Ki was 2360 nM. Same read-out and setting: the figure for `CC(C)(O)C(=O)c1nc2n(n1)[C@@H](c1ccccc1)C[C@H]2F` (stereo in doubt) [Example 5, 2-hydroxy-2-methyl-1-[rac-(5R,7R)-7-fluoro-5-phenyl-6,7-dihydro-5H-pyrrolo[1,2-b][1,2,4]triazol-2-yl]propan-1-one] is 23 nM; for `CC(=O)c1nc2n(n1)[C@@H](c1ccccc1)C[C@H]2F` (racemic) [Example 50, 1-[rac-(5R,7R)-7-fluoro-5-phenyl-6,7-dihydro-5H-pyrrolo[1,2-b][1,2,4]triazol-2-yl]ethanone] it is 76.7 nM.
